Source: PMC6953623 (Bioorganic & medicinal chemistry letters, 2019)

Molecular target: AChE (Homo sapiens, UniProt P22303)
Format: biochemical
Settings: result in words

Chain of AChE (P22303 32-614): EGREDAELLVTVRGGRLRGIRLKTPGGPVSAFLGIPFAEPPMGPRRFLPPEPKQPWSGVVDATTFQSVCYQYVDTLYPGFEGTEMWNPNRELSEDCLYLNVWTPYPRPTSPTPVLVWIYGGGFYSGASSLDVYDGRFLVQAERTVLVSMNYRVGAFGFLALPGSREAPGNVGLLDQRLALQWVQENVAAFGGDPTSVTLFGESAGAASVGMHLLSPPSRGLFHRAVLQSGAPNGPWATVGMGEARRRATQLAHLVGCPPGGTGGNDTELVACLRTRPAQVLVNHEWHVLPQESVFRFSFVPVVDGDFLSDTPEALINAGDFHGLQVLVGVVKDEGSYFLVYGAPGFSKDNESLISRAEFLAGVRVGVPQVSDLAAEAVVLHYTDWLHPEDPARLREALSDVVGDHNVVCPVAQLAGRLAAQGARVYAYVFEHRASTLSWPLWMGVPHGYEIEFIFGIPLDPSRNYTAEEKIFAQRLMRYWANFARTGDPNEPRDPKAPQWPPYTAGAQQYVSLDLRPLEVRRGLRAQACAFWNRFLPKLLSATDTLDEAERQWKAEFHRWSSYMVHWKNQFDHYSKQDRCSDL

SMILES: Cc1cc(CSCCc2nc3ccccc3[nH]2)c(O)c(CSCCc2nc3ccccc3[nH]2)c1 [NSC620023]
- inhibition of AChE: no inhibition of AChE at all
